Assay [1] deals with T1, SPT (SPT2-expressing membrane fraction: human SPT1, human SPT2 and human ssSPTa) (Homo sapiens, UniProt O15269+O15270).
T1 construct: Full-length human SPT1, human SPT2 and human ssSPTa used; made in house; host or cells: FreeStyle 293 cells (pcDNA3.1 vectors, cotransfection); crude membrane fraction used
T1 sequence (O15269 1-473): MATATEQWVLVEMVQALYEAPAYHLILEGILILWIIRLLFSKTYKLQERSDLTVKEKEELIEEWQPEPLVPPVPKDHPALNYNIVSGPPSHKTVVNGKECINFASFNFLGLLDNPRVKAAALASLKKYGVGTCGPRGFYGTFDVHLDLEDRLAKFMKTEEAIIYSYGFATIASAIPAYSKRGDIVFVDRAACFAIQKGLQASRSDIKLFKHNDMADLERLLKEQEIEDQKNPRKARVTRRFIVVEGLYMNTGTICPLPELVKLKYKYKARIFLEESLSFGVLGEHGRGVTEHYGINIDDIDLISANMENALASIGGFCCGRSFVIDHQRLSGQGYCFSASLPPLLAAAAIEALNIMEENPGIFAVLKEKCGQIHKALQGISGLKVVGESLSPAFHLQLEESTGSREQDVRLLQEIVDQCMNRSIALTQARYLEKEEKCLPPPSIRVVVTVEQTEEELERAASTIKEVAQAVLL
T1 sequence (O15270 1-562): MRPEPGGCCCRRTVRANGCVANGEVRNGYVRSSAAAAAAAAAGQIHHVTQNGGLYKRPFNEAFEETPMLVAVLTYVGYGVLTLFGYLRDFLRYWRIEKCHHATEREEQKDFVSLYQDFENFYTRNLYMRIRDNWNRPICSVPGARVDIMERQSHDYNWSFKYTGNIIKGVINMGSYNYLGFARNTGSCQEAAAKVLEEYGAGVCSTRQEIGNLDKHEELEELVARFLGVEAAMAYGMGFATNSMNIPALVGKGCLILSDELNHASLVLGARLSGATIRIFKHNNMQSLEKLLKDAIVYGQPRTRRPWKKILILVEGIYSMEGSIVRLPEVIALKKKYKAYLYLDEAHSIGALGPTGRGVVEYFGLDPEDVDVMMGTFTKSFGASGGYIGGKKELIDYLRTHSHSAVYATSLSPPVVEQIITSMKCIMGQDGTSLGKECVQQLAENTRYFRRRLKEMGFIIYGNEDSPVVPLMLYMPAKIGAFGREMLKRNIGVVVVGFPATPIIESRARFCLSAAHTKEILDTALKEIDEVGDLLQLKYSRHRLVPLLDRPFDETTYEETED
T1 sequence (Q969W0 1-71 partner): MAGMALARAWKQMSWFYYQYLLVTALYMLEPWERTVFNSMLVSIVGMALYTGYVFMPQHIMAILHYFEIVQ
The experiment in a line: SPT enzyme inhibition test (Test Example 1). The note with it: for inhibition at 1 µM: read-out: Rate of inhibition (%) at 1 μM. The format is biochemical. As to the method: After culture for 3 days, the cells were recovered and frozen at −80° C. to obtain expressing cells. The frozen cells were suspended in a 50 mM Hepes buffer (pH 7.5) containing 250 mM sucrose, 5 mM ethylenediaminetetraacetic acid (EDTA), 5 mM dithiothreitol (DTT) and Complete, EDTA-free (Roche Applied Science, Penzberg, Upper Bavaria, Germany). The cells were disrupted (on ice, 20,000 rpm, 20 sec×2) using POLYTORON (Central Scientific Commerce, Inc.). After centrifugation at 2000 rpm (850×g) for 10 minutes, the supernatant was recovered. Subsequently, the supernatant was centrifuged at 40,000 rpm (186,010×g) for 60 minutes, and the supernatant was discarded. The pellets were suspended in a 50 mM Hepes buffer (pH 7.5) containing 5 mM EDTA, 5 mM DTT and Complete, EDTA-free, passed through a 40-μm cell strainer and stored at −80° C. The resultant was used as a SPT2-expressing membrane fraction. The protein concentration was determined using CBB Protein Assay with bovine serum albumin used as standards.
5 μL of each test compound was mixed with 10 μL of the 100 μg/mL SPT2-expressing membrane fraction using an assay buffer (100 mM Hepes (pH 8.0) containing 2.5 mM EDTA, 5 mM DTT and 0.01% fatty acid-free bovine serum albumin), and the mixture was left standing at room temperature for 60 minutes. Subsequently, 5 μL of a substrate solution containing 2 mM L-serine and 20 μM palmitoyl CoA was added thereto, and an enzyme reaction was carried out in a 384-well plate using 20 μL in total of the reaction system. After reaction at room temperature for 15 minutes, the reaction was terminated by the addition of 20 μL of a 2% aqueous formic acid solution. Subsequently, 40 μL of acetonitrile containing 600 nM C17-sphinganine (Avanti Polar Lipids, Inc., Alabaster, Ala., U.S.) was added thereto as an internal standard. The reaction sample was subjected to on-line solid-layer extraction using RapidFire 300 (Agilent Technologies Inc., Santa Clara, Calif., U.S.). […] Mass chromatograms were obtained using Analyst software (version 1.5.0, AB SCIEX). Their mass chromatogram areas were respectively calculated, and the rate of inhibition (%) by the test compound was calculated using an area ratio (the value of the reaction product was divided by the value of the internal standard).

In assay [2] the test system is lung adenocarcinoma cell line HCC4006. Briefly: HCC4006 cell growth inhibition test (Test Example 2). To be noted: HCC4006 cells, culture for 5 days, CellTiter-Glo; for inhibition at 1 µM: read-out: Rate of inhibition (%) at 1 μM. The class given is cell-based. The method, then: A lung adenocarcinoma cell line HCC4006 (ATCC) was cultured using an RPMI-1640 medium (Wako Pure Chemical Industries, Ltd.) containing 10% fetal bovine serum and penicillin/streptomycin. 250 cells per well were inoculated into 40 μL of a medium in a 384-well culture plate. On the next day, 10 μL of each test compound was added to the cells. After culture for 5 days, the medium was discarded, and 30 μL of CellTiter-Glo Luminescent Cell Viability Assay solution (Promega Corp., Fitchburg, Wis., U.S.) was added to each well. Light emission signals were measured using EnVision (PerkinElmer, Inc., Waltham, Mass., U.S.).
The rate of inhibition (%) by the test compound was calculated according to the following expression: Rate of inhibition (%)=(1−(Count of the test compound−Blank)/(Control−Blank))×100
In the above expression, a count under compound non-addition conditions was indicated as a control, and a count under cell-free conditions was indicated as a blank.

Where [3] appears, read: Homo sapiens, 120 h, 1 μM test compound.

By inhibition is commonly meant the drop in the measured response relative to a control, in per cent. Regarding `COc1ccc(C(=O)N2CC[C@H](NC(=O)c3ccccc3Cl)[C@H](c3ccc(F)cc3)C2)cc1OC` (relative stereo) [Example 114B, 2-chloro-N-(cis-1-(3,4-dimethoxybenzoyl)-3-(4-fluorophenyl)piperidin-4-yl)benzamide], the results for the inhibition at 1 µM in assay [1] and in assay [2] (setting [3]) were 99% and 56%, respectively.
The like results for `COc1ccc(C(=O)N2CCC(NC(=O)c3ccccc3Cl)c3cn(C)nc32)cc1OC` (stereo not drawn) [Example 3A, 2-Chloro-N-(7-(3,4-dimethoxybenzoyl)-2-methyl-4,5,6,7-tetrahydro-2H-pyrazolo[3,4-b]pyridin-4-yl)benzamide] were, in that order, 98% and 41%.
The like results for `Cc1cc(C(=O)N[C@@H]2CCN(C(=O)c3cc(Cl)c4nccnc4c3)C[C@@H]2c2ccccc2)n(C)n1` [Example 23B, N-((3S,4R)-1-((8-Chloroquinoxalin-6-yl)carbonyl)-3-phenylpiperidin-4-yl)-1,3-dimethyl-1H-pyrazole-5-carboxamide] were, in that order, 101% and 53%.
For `CN(C)CCOc1ccc(C(=O)N[C@@H]2CCN(C(=O)c3cc(Cl)c4nccnc4c3)C[C@@H]2c2ccccc2)cn1` [Example 25B, N-((3S,4R)-1-((8-chloroquinoxalin-6-yl)carbonyl)-3-phenylpiperidin-4-yl)-6-(2-(dimethylamino)ethoxy) nicotinamide], the “Rate of inhibition (%) at 1 μM” value in assay [1] (1 μM test compound, SPT2-expressing membrane fraction) is reported as 100%; in assay [2] (1 μM test compound), 53%.
Take `O=C(N[C@@H]1CCN(C(=O)c2cc(Cl)c3nccnc3c2)C[C@@H]1c1ccccc1)c1ncccc1OC(F)F` [Example 31B, N-((3S,4R)-1-((8-Chloroquinoxalin-6-yl)carbonyl)-3-phenylpiperidin-4-yl)-3-(difluoromethoxy)pyridine-2-carboxamide]: the inhibition at 1 µM came out at 102% in assay [1] and 57% in assay [2] (setting [3]).
In the same order, the values of `Cc1cc(NC(=O)C2CC2)sc1C(=O)N1CC[C@@H](NC(=O)c2ccccc2OC(F)(F)F)[C@@H](c2ccccc2)C1` [Example 35B, N-((3S,4R)-1-((5-((cyclopropylcarbonyl)amino)-3-methyl-2-thienyl)carbonyl)-3-phenylpiperidin-4-yl)-2-(trifluoromethoxy)benzamide] are 101% and 40%.
The like results for `CN(C)CCOc1cc(C(F)(F)F)c(C(=O)N[C@@H]2CCN(C(=O)c3cc(Cl)c4nccnc4c3)C[C@@H]2c2ccccc2)cn1` [Example 38B, N-((3S,4R)-1-((8-chloroquinoxalin-6-yl)carbonyl)-3-phenylpiperidin-4-yl)-6-(2-(dimethylamino)ethoxy)-4-(trifluoromethyl)nicotinamide] were, in that order, 101% and 46%.
As to `COc1ccc(C(=O)N2CC[C@@H](NC(=O)c3ncccc3C(F)(F)F)[C@@H](c3ccccc3)C2)nc1OC` [Example 44B, N-((3S,4R)-1-((5,6-dimethoxypyridin-2-yl)carbonyl)-3-phenylpiperidin-4-yl)-3-(trifluoromethyl)pyridine-2-carboxamide], the inhibition at 1 µM in assay [1] turned out to be 98%; in assay [2] (setting [3]), 47%.
In the same order, the values of `O=C(N[C@@H]1CCN(C(=O)c2ccc3nccnc3c2)C[C@@H]1c1ccccc1)c1ccccc1OC(F)(F)F` [Example 57B, N-((3S,4R)-3-phenyl-1-(quinoxalin-6-ylcarbonyl)piperidin-4-yl)-2-(trifluoromethoxy) benzamide] are 96% and 54%.
In the same order, the values of `Cc1cc(C(=O)N[C@@H]2CCN(C(=O)c3cc(Cl)c4nccnc4c3)C[C@@H]2c2ccc(F)cc2)n(C)n1` [Example 58B, N-((3S,4R)-1-((8-chloroquinoxalin-6-yl)carbonyl)-3-(4-fluorophenyl)piperidin-4-yl)-1,3-dimethyl-1H-pyrazole-5-carboxamide] are 101% and 49%.
Take `Cc1nn(C)c(Cl)c1C(=O)N[C@@H]1CCN(C(=O)c2cc(Cl)c3nccnc3c2)C[C@@H]1c1ccc(F)cc1` [Example 59B, 5-Chloro-N-((3S,4R)-1-((8-chloroquinoxalin-6-yl)carbonyl)-3-(4-fluorophenyl)piperidin-4-yl)-1,3-dimethyl-1H-pyrazole-4-carboxamide]: the inhibition at 1 µM in assay [1] is 101%. Moreover, the inhibition at 0.3 µM in assay [2] (Homo sapiens, 120 h, 0.3 μM test compound, read-out: Rate of inhibition at 0.3 μM) is 53%.
`COc1cc(C(=O)N2CC[C@@H](NC(=O)c3ncccc3C(F)(F)F)[C@@H](c3ccccc3)C2)cnc1OC` [Example 64B, N-((3S,4R)-1-((5,6-dimethoxypyridin-3-yl)carbonyl)-3-phenylpiperidin-4-yl)-3-(trifluoromethyl)pyridine-2-carboxamide]: the figures for the inhibition at 1 µM in assay [1] and in assay [2] (setting [3]) were 100% and 49%, respectively.
For the compound `COc1ccc(C(=O)N2CC[C@H](NC(=O)c3ccccc3Cl)c3c2cnn3C(C)C)cc1OC` [Example 74A, 2-Chloro-N-((7S)-4-(3,4-dimethoxybenzoyl)-1-isopropyl-4,5,6,7-tetrahydro-1H-pyrazolo[4,3-b]pyridin-7-yl)benzamide], the inhibition at 1 µM in assay [2] (setting [3]) worked out at 51%.
The same measure, in the same setting: in the case of `COc1cc(C(=O)N2CCC(NC(=O)c3ccccc3OC(F)(F)F)c3c2cnn3C(C)C)cnc1OC` (stereo not drawn) [Example 132A, N-(4-((5,6-Dimethoxypyridin-3-yl)carbonyl)-1-isopropyl-4,5,6,7-tetrahydro-1H-pyrazolo[4,3-b]pyridin-7-yl)-2-(trifluoromethoxy)benzamide] it was 52%; in that of `COc1ccc(C(=O)N2CCC(NC(=O)c3ccccc3Cl)c3ccc(Cl)cc32)cc1OC` (stereo not drawn) [Example 201A, 2-Chloro-N-(7-chloro-1-(3,4-dimethoxybenzoyl)-1,2,3,4-tetrahydroquinolin-4-yl)benzamide], 40%.

Source of the values: US10189785B2, “Heterocyclic compound” (TAKEDA PHARMACEUTICAL COMPANY LIMITED, priority 2015, dated 2019).
